Reference: patent US20240041042A1, “1-(PYRIDYL)-5-AZINYLPYRAZOLE DERIVATIVES, AND THEIR USE FOR CONTROL OF UNDESIRED PLANT GROWTH” (Bayer Aktiengesellschaft, priority 2020, published 2024)
Read-outs that look alike come from different tables or passages of the source.

Experiments:
Type in all cases: in vivo
[1] = system: Abutilon theophrasti (ABUTH); assay: Post-emergence herbicidal action against ABUTH; details: visual rating about 3 weeks after treatment vs untreated controls (100% = plants have died, 0% = like control plants)
How it was run: (§1)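 Greenhouse plants sprayed at the one-leaf stage, 2–3 weeks after sowing, with WP or EC formulations plus 0.5% additive at 600 l/ha water. Activity rated visually after about 3 weeks versus untreated controls (100% = dead, 0% = like control), at 320 g/ha or lower.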

[2] = system: Alopecurus myosuroides (ALOMY); assay: Post-emergence herbicidal action against ALOMY; details: visual rating about 3 weeks after treatment vs untreated controls (100% = plants have died, 0% = like control plants)
How it was run: as §1

[3] = system: Amaranthus retroflexus (AMARE); assay: Post-emergence herbicidal action against AMARE
How it was run: as §1

Avena fatua (AVEFA) = assay: Post-emergence herbicidal action against AVEFA; details: visual rating about 3 weeks after treatment
How it was run: as §1

[4] = system: Digitaria sanguinalis (DIGSA); assay: Post-emergence herbicidal action against DIGSA; details: visual rating about 3 weeks after treatment
How it was run: as §1

[5] = system: Echinochloa crus-galli (ECHCG); assay: Post-emergence herbicidal action against ECHCG
How it was run: as §1

Lolium rigidum (LOLRI) = assay: Post-emergence herbicidal action against LOLRI
How it was run: as §1

[6] = system: Matricaria inodora (MATIN); assay: Post-emergence herbicidal action against MATIN
How it was run: as §1

[7] = system: Pharbitis purpurea (PHBPU); assay: Post-emergence herbicidal action against PHBPU
How it was run: as §1

[8] = system: Polygonum convolvulus (POLCO); assay: Post-emergence herbicidal action against POLCO
How it was run: as §1

Setaria viridis (SETVI) = assay: Post-emergence herbicidal action against SETVI
How it was run: as §1

[9] = system: Verconica persica (VERPE); assay: Post-emergence herbicidal action against VERPE
How it was run: as §1

Viola tricolor (VIOTR) = assay: Post-emergence herbicidal action against VIOTR
How it was run: as §1

Oryza sativa (ORYSA) = details: crop plant compatibility
How it was run: (§2)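 Test crops were treated 2 to 3 weeks after sowing, once they reached one leaf, by spraying compound in water with 0.5% additive at 600 l/ha. Visual scoring compared them with untreated controls roughly 3 weeks on, and appendices a, b and c denote different doses.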

Zea mays (ZEAMX) = details: for Post-emergence action against ZEAMX in % (crop plant compatibility): 20 g/ha, effect in comparison to untreated controls; for Post-emergence action against ZEAMX in %: crop plant compatibility, 80 g/ha, effect vs untreated controls
How it was run: as §2

[10] = 80 g/ha, visual rating about 3 weeks after treatment vs untreated controls (100% = plants have died, 0% = like control plants)
[11] = 320 g/ha, visual rating about 3 weeks after treatment
[12] = 20 g/ha, effect vs untreated controls
[13] = 80 g/ha, effect in comparison to untreated controls

SMILES	Post-emergence action against ORYSA in % (Oryza sativa (ORYSA); [12]) [%]	Post-emergence action against ABUTH in % ([1]; 320 g/ha) [%]	Post-emergence action against ALOMY in % ([2]; 320 g/ha) [%]	Post-emergence action against AMARE in % [3, 11] [%]	Post-emergence action against AVEFA in % (Avena fatua (AVEFA); 80 g/ha) [%]	Post-emergence action against AVEFA in % (Avena fatua (AVEFA); 320 g/ha) [%]	Post-emergence action against DIGSA in % ([4]; 320 g/ha) [%]	Post-emergence action against ECHCG in % ([5]; dosage 320 g/ha) [%]	Post-emergence action against LOLRI in % (Lolium rigidum (LOLRI); dosage 80 g/ha) [%]	Post-emergence action against LOLRI in % (Lolium rigidum (LOLRI); dosage 320 g/ha) [%]	Post-emergence action against MATIN in % ([6]; dosage 320 g/ha) [%]	Post-emergence action against PHBPU in % ([7]; dosage 80 g/ha) [%]	Post-emergence action against PHBPU in % ([7]; dosage 320 g/ha) [%]	Post-emergence action against POLCO in % ([8]; dosage 320 g/ha) [%]	Post-emergence action against SETVI in % (Setaria viridis (SETVI); dosage 80 g/ha) [%]	Post-emergence action against SETVI in % (Setaria viridis (SETVI); dosage 320 g/ha) [%]	Post-emergence action against VERPE in % ([9]; 320 g/ha, VERPE) [%]	Post-emergence action against VERPE in % ([9]; dosage 80 g/ha) [%]	Post-emergence action against VIOTR in % (Viola tricolor (VIOTR); 80 g/ha) [%]	Post-emergence action against VIOTR in % (Viola tricolor (VIOTR); 320 g/ha) [%]	further results
O=C(COc1nn(-c2ncccc2F)c(-c2ccc(F)nc2)c1C1CC1)OCC(F)(F)F [Example I-326]	0	80	90	90	90	90	90	90	90	90	80	80	90	90	90	90	90	90	90	90	Post-emergence action against ABUTH in % ([1]; 80 g/ha): 80%; Post-emergence action against ALOMY in % ([2]; 80 g/ha): 90%; Post-emergence action against AMARE in % [3, 10]: 90%; Post-emergence action against DIGSA in % ([4]; 80 g/ha): 80%; Post-emergence action against ECHCG in % ([5]; dosage 80 g/ha): 90%; Post-emergence action against POLCO in % ([8]; dosage 80 g/ha): 80%; Post-emergence action against ZEAMX in % (crop plant compatibility) (Zea mays (ZEAMX)): 0%; Post-emergence action against ZEAMX in % (Zea mays (ZEAMX)): 0%
O=C(COc1nn(-c2ncccc2F)c(-c2ccc(F)nc2)c1C1CC1)OCC1CC1 [Example I-318]	0	80	90	90	90	90	90	90	90	90	80	90	90	90	90	90	90	90	80	90	Post-emergence action against ABUTH in % ([1]; 80 g/ha): 80%; Post-emergence action against ALOMY in % ([2]; 80 g/ha): 90%; Post-emergence action against AMARE in % [3, 10]: 90%; Post-emergence action against DIGSA in % ([4]; 80 g/ha): 90%; Post-emergence action against ECHCG in % ([5]; dosage 80 g/ha): 90%; Post-emergence action against MATIN in % ([6]; dosage 80 g/ha): 80%; Post-emergence action against POLCO in % ([8]; dosage 80 g/ha): 90%; Post-emergence action against ZEAMX in % (crop plant compatibility) (Zea mays (ZEAMX)): 0%; Post-emergence action against ZEAMX in % (Zea mays (ZEAMX)): 0%
COC(=O)[C@H](C)COC(=O)[C@@H](C)Oc1nn(-c2ccccn2)c(-c2ccc(F)nc2)c1Cl [Example I-275]		80	100	80	90	90	90	90	90	90	90	90	100	80	90	90	90	90	90	90	Post-emergence action against ABUTH in % ([1]; 80 g/ha): 80%; Post-emergence action against ALOMY in % ([2]; 80 g/ha): 80%; Post-emergence action against MATIN in % ([6]; dosage 80 g/ha): 80%; Post-emergence action against POLCO in % ([8]; dosage 80 g/ha): 80%; Post-emergence action against ZEAMX in % (crop plant compatibility) (Zea mays (ZEAMX)): 0%; Post-emergence action against ZEAMX in % (Zea mays (ZEAMX)): 20%
CCOC(=O)[C@@H](C)Oc1nn(-c2ncccc2F)c(-c2cncc(F)c2)c1C1CC1 [Example I-172]	20	80	90	80	80	90	90	90	90	90	90	80	90	80	80	80	90	80	80	90	Post-emergence action against ALOMY in % ([2]; 80 g/ha): 90%; Post-emergence action against DIGSA in % ([4]; 80 g/ha): 80%; Post-emergence action against ECHCG in % ([5]; dosage 80 g/ha): 80%; Post-emergence action against MATIN in % ([6]; dosage 80 g/ha): 90%

Now from value to compound, other results behind:

Post-emergence action against ORYSA in % (Oryza sativa (ORYSA); [12]) [%]	SMILES	Post-emergence action against ABUTH in % ([1]; 320 g/ha) [%]	Post-emergence action against ALOMY in % ([2]; 320 g/ha) [%]	Post-emergence action against AMARE in % [3, 11] [%]	Post-emergence action against AVEFA in % (Avena fatua (AVEFA); 80 g/ha) [%]	Post-emergence action against AVEFA in % (Avena fatua (AVEFA); 320 g/ha) [%]	Post-emergence action against DIGSA in % ([4]; 320 g/ha) [%]	Post-emergence action against ECHCG in % ([5]; dosage 320 g/ha) [%]	Post-emergence action against LOLRI in % (Lolium rigidum (LOLRI); dosage 80 g/ha) [%]	Post-emergence action against LOLRI in % (Lolium rigidum (LOLRI); dosage 320 g/ha) [%]	Post-emergence action against MATIN in % ([6]; dosage 320 g/ha) [%]	Post-emergence action against PHBPU in % ([7]; dosage 80 g/ha) [%]	Post-emergence action against PHBPU in % ([7]; dosage 320 g/ha) [%]	Post-emergence action against POLCO in % ([8]; dosage 320 g/ha) [%]	Post-emergence action against SETVI in % (Setaria viridis (SETVI); dosage 80 g/ha) [%]	Post-emergence action against SETVI in % (Setaria viridis (SETVI); dosage 320 g/ha) [%]	Post-emergence action against VERPE in % ([9]; 320 g/ha, VERPE) [%]	Post-emergence action against VERPE in % ([9]; dosage 80 g/ha) [%]	Post-emergence action against VIOTR in % (Viola tricolor (VIOTR); 80 g/ha) [%]	Post-emergence action against VIOTR in % (Viola tricolor (VIOTR); 320 g/ha) [%]	further results
0	CC(C)=NOC(=O)COc1nn(-c2ncccc2F)c(-c2ccc(F)nc2)c1C1CC1 [Example I-366]	90	90	80	90	90	90	90	90	90	80	80	80	80	90	90	90	80	80	90	Post-emergence action against ABUTH in % ([1]; 80 g/ha): 80%; Post-emergence action against DIGSA in % ([4]; 80 g/ha): 80%; Post-emergence action against ECHCG in % ([5]; dosage 80 g/ha): 90%; Post-emergence action against ORYSA in % (Oryza sativa (ORYSA); [13]): 20%; Post-emergence action against ZEAMX in % (crop plant compatibility) (Zea mays (ZEAMX)): 10%
0	COC(=O)[C@@H](C)Oc1nn(-c2ncccc2F)c(-c2cncc(F)c2)c1Cl [Example I-146]	90	90	90	90	90	90	90		90	90	90	90	90	90	90	90	90	90	90	Post-emergence action against ABUTH in % ([1]; 80 g/ha): 80%; Post-emergence action against AMARE in % [3, 10]: 90%; Post-emergence action against ECHCG in % ([5]; dosage 80 g/ha): 90%; Post-emergence action against MATIN in % ([6]; dosage 80 g/ha): 90%; Post-emergence action against POLCO in % ([8]; dosage 80 g/ha): 80%
0	CCCOC(=O)COc1nn(-c2ncccc2F)c(-c2ccc(F)nc2)c1C1CC1 [Example I-344]	80	90	90	90	90	90	90	90	90	80	90	90	90	90	90	90	90	80	80	Post-emergence action against ABUTH in % ([1]; 80 g/ha): 80%; Post-emergence action against ALOMY in % ([2]; 80 g/ha): 90%; Post-emergence action against AMARE in % [3, 10]: 90%; Post-emergence action against DIGSA in % ([4]; 80 g/ha): 90%; Post-emergence action against ECHCG in % ([5]; dosage 80 g/ha): 90%; Post-emergence action against MATIN in % ([6]; dosage 80 g/ha): 80%; Post-emergence action against POLCO in % ([8]; dosage 80 g/ha): 80%; Post-emergence action against ORYSA in % (Oryza sativa (ORYSA); [13]): 0%; Post-emergence action against ZEAMX in % (crop plant compatibility) (Zea mays (ZEAMX)): 0%; Post-emergence action against ZEAMX in % (Zea mays (ZEAMX)): 0%
10	COC(=O)C(C)COC(=O)C(C)Oc1nn(-c2ccccn2)c(-c2ccc(F)nc2)c1Br (stereo not drawn) [Example I-285]	80	90			80	90	80	80	90	80	80	90	80	90	90	80	80	80	80	Post-emergence action against ALOMY in % ([2]; 80 g/ha): 90%; Post-emergence action against DIGSA in % ([4]; 80 g/ha): 80%; Post-emergence action against ORYSA in % (Oryza sativa (ORYSA); [13]): 10%; Post-emergence action against ZEAMX in % (crop plant compatibility) (Zea mays (ZEAMX)): 10%
